In DBAASP one finds MIC data, which are given here for four compounds.

Each structure is given as a SMILES string. ≈ marks a conversion by molar mass, not a printed value. Where “and” joins values, the source holds several entries; their conditions need not be identical. Equal entries are not always repeated.

Test systems include Bacillus subtilis; Candida krusei ATCC 6258; Escherichia coli ML-35; Escherichia coli; Klebsiella pneumoniae; Pseudomonas aeruginosa; Salmonella typhimurium; Shigella dysenteriae; Staphylococcus aureus; Serratia rubidaea X01; Aspergillus fumigatus; Fusarium culmorum; Fusarium oxysporum; Saccharomyces cerevisiae; Trichoderma viride; Bacillus cereus; Bacillus pumilus.
Holding throughout (test): ≥ marks a high value that may be exact or a test limit, other limits are often not marked, values filed in µg/mL are converted to µM
Experiment [1] has as its system Bacillus subtilis ATCC 23857.
The subject of experiment [2] is Bacillus subtilis CCT 2576.
The test system of experiment [3] is Candida albicans ATCC 14053.
Experiment [4] relates to Candida glabrata ATCC 2001.
Experiment [5] deals with Candida parapsilosis ATCC 22019.
The test system of experiment [6] is Candida tropicalis ATCC 750.
Experiment [7] deals with Cronobacter sakazakii ATCC 29544.
In experiment [8] the test system is Klebsiella pneumoniae ATCC 700603.
Experiment [9] deals with Pseudomonas aeruginosa ATCC 15422.
Experiment [10] relates to Pseudomonas aeruginosa ATCC 27853.
Experiment [11] concerns Staphylococcus aureus ATCC 29213.
Experiment [12] relates to Staphylococcus aureus ATCC 6538.
The test system of experiment [13] is Staphylococcus epidermidis ATCC 12228.
Experiment [14] has as its system Staphylococcus epidermidis.
Experiment [15] has as its system Bacillus licheniformis X39.
Experiment [16] concerns Enterococcus faecalis 981.
Experiment [17] has as its system Psychrobacter faecalis X29.
Experiment [18] concerns Rhodococcus rhodochrous X15.
The subject of experiment [19] is Staphylococcus aureus ATCC 25923.
Experiment [20] concerns Staphylococcus carnosus KHS.
The subject of experiment [21] is Trichophyton mentagrophytes.
Experiment [22] relates to Acinetobacter calcoaceticus.
Experiment [23] relates to Candida albicans ATCC 2002.
Experiment [24] concerns Escherichia coli ATCC 25922.
For experiment [25], the system named is Staphylococcus aureus ATCC 2592.

The term MIC denotes the lowest concentration that inhibits growth of the organism. Turning to `CC[C@H](C)[C@H](N)C(=O)N[C@@H](CC(=O)O)C(=O)N[C@@H](Cc1c[nH]c2ccccc12)C(=O)N[C@@H](CCCCN)C(=O)N[C@@H](CCCCN)C(=O)N[C@@H](CC(C)C)C(=O)N[C@@H](CC(C)C)C(=O)N[C@@H](CC(=O)O)C(=O)N[C@@H](C)C(=O)N[C@@H](C)C(=O)N[C@@H](CCCCN)C(=O)N[C@@H](CCC(N)=O)C(=O)N[C@H](C(=O)N[C@@H](CC(C)C)C(N)=O)[C@@H](C)CC` [IDWKKLLDAAKQIL], the MIC in experiment [1] was 8 µM and 4 µM; in [2], 2.42 µM (≈ 4 µg/mL); with Bacillus subtilis it was 7.55 µM (≈ 12.5 µg/mL); in experiment [3], 8 µM (≈ 13.2 µg/mL); in [4], 8 µM (≈ 13.2 µg/mL); against Candida krusei ATCC 6258, 8 µM (≈ 13.2 µg/mL). Further, the MIC in [5] is no less than 64 µM; in [6], 8 µM (≈ 13.2 µg/mL); in experiment [7], no less than 64 µM; in the experiment with Escherichia coli ML-35 it was no less than 32 µM; with Escherichia coli, 45.3 µM (≈ 75 µg/mL); in experiment [8] it was 64 µM (≈ 106 µg/mL). Further, the MIC in the experiment with Klebsiella pneumoniae is 22.7 µM (≈ 37.5 µg/mL); in experiment [9], 4.83 µM (≈ 8 µg/mL); in experiment [10], 128 µM (≈ 212 µg/mL); against Pseudomonas aeruginosa, greater than 60.4 µM; against Salmonella typhimurium it was no less than 60.4 µM; in the experiment on Shigella dysenteriae, no less than 45.3 µM. The MIC in experiment [11] is 32 µM (≈ 52.9 µg/mL); in experiment [12] it was 9.06 µM (≈ 15 µg/mL); against Staphylococcus aureus it was 11.4 µM (≈ 18.8 µg/mL); in experiment [13], 32 µM and > 16 µM; in [14], no less than 60.4 µM.
`CC(C)C[C@H](NC(=O)[C@H](CC(C)C)NC(=O)CNC(=O)[C@H](CCCCN)NC(=O)[C@H](CC(C)C)NC(=O)[C@H](CC(C)C)NC(=O)[C@H](CC(N)=O)NC(=O)CNC(=O)[C@@H](NC(=O)[C@H](Cc1ccccc1)NC(=O)[C@@H]1CCCN1C(=O)[C@H](CC(C)C)NC(=O)[C@@H](N)Cc1ccccc1)C(C)C)C(N)=O` [FLPFVGNLLKGLL]: the MIC in experiment [15] is 19 µM (≈ 27.2 µg/mL); in experiment [16], 19 µM (≈ 27.2 µg/mL); in experiment [17], no less than 75 µM; in experiment [18], 9 µM (≈ 12.9 µg/mL); against Serratia rubidaea X01, no less than 75 µM; in [19], 9 µM (≈ 12.9 µg/mL). The compound further had an MIC in experiment [20] of 19 µM (≈ 27.2 µg/mL).
Take `CC[C@H](C)[C@@H]1NC(=O)[C@@H]2CSSC[C@@H](C(=O)N[C@@H](CCCN=C(N)N)C(=O)N[C@@H](CCCN=C(N)N)C(=O)O)NC(=O)[C@H]([C@@H](C)O)NC(=O)[C@@H]3CSSC[C@H](NC(=O)[C@H](C)NC(=O)[C@H](C)NC(=O)[C@H](Cc4cnc[nH]4)NC(=O)CNC(=O)[C@H](C(C)C)NC(=O)CNC(=O)[C@H](Cc4ccccc4)NC(=O)[C@H](C)NC(=O)[C@H](CO)NC(=O)[C@H](CC(C)C)NC(=O)[C@H](CC(C)C)NC(=O)[C@H](CC(=O)O)NC(=O)[C@@H](NC(=O)[C@@H](NC(=O)[C@H](C)N)[C@@H](C)O)CSSC[C@H](NC(=O)[C@H](Cc4ccc(O)cc4)NC(=O)CNC(=O)CNC(=O)[C@H](CCCN=C(N)N)NC(=O)[C@H](Cc4ccc(O)cc4)NC(=O)CNC(=O)[C@H](Cc4cnc[nH]4)NC(=O)CNC1=O)C(=O)N[C@@H](CC(N)=O)C(=O)N[C@@H](CO)C(=O)N[C@@H](CCCCN)C(=O)N[C@@H](C)C(=O)N[C@@H](C(C)C)C(=O)N3)C(=O)N[C@@H](C)C(=O)N[C@@H](C)C(=O)N[C@@H](Cc1cnc[nH]1)C(=O)N2` [ATCDLLSAFGVGHAACAAHCIGHGYRGGYCNSKAVCTCRR]: the minimum inhibitory concentration (MIC) with Aspergillus fumigatus was 17.7 µM (≈ 72.4 µg/mL); against Fusarium culmorum, 2.21 µM (≈ 9.04 µg/mL); against Fusarium oxysporum, 4.42 µM (≈ 18.1 µg/mL); with Saccharomyces cerevisiae, no less than 35.4 µM; with Staphylococcus aureus, 1.1 µM (≈ 4.52 µg/mL); in the experiment on Trichoderma viride, 4.42 µM (≈ 18.1 µg/mL). In addition, in experiment [21], the MIC was no less than 35.4 µM.
`CC[C@H](C)[C@H](NC(=O)[C@@H]1CCCN1C(=O)[C@H](Cc1ccccc1)NC(=O)[C@@H](N)Cc1ccccc1)C(=O)N[C@H](C(=O)NCC(=O)N[C@@H](CCCCN)C(=O)N[C@@H](CC(C)C)C(=O)N[C@@H](CC(C)C)C(=O)N[C@@H](Cc1ccccc1)C(=O)NCC(=O)N[C@@H](CC(C)C)C(=O)N[C@@H](CO)C(=O)NCC(=O)N[C@@H](CC(C)C)C(=O)N[C@@H](CC(C)C)C(N)=O)C(C)C` [FFPIVGKLLFGLSGLL]: the MIC in [22] is 8.72 µM (≈ 15 µg/mL); in the experiment on Bacillus cereus, 8.72 µM (≈ 15 µg/mL); against Bacillus pumilus it was 2.91 µM (≈ 5 µg/mL); in experiment [23] it was 0.726 µM (≈ 1.25 µg/mL); in experiment [24] it was 0.726 µM (≈ 1.25 µg/mL); against Pseudomonas aeruginosa, 2.91 µM (≈ 5 µg/mL). Further, the MIC against Shigella dysenteriae worked out at 2.91 µM (≈ 5 µg/mL); in experiment [25], 0.726 µM (≈ 1.25 µg/mL).
